Assay results: patent US4175081A, “5-Substituted thiadiazole ureas” (priority 1977, dated 1979)

Columns and labels:
Crabgrass (CG) [1] = test: Pre-emergence herbicide test; assay type: in vivo, Digitaria sanquinalis; conditions: Digitaria sanguinalis, pre-emergence, 336 h, two weeks after treatment
Summary of the method: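 Crabgrass (Digitaria sanquinalis) was surface seeded in 3' plastic pots of potting soil, covered with screened soil, and watered by sub-irrigation in greenhouse trays. Pots were seeded one day before spraying in a hood with a moving belt and fixed nozzle. Plants stayed in the greenhouse on sub-irrigation, and pre-emergence control was rated visually two weeks after treatment.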

Johnson grass (JG) [2] = test: Pre-emergence herbicide test; assay type: in vivo, Sorgum helepense; conditions: Sorghum halepense, 336 h, two weeks after treatment
Summary of the method: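 Visual injury or control rating two weeks post-treatment, after pre-emergence spray of 8 or 4 lbs active per acre (38 gal/acre) onto pots sown the previous day. Greenhouse watering by sub-irrigation only.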

Barnyard grass (BG) [3] = test: Pre-emergence herbicide test; assay type: in vivo; conditions: Echinochloa crus-galli, 336 h, two weeks after treatment
Summary of the method: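 Greenhouse pre-emergence spray test: pots seeded one day before treatment received compound at rates of 8 or 4 lb/acre (38 gal/acre). Visual injury/control scores for Echinochloa crus-galli taken at two weeks, with watering by sub-irrigation only.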

Amaranth pigweed (PW) [4] = test: Pre-emergence herbicide test; assay type: in vivo, Amaranthus retroflexus; conditions: 336 h, two weeks after treatment
Summary of the method: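 Visual injury or control ratings were made at two weeks on pre-emergence pots, sub-irrigated in the greenhouse. Seeds were sown a day before a hood spray delivering 8 lbs/acre (or 4 lbs/acre) of compound in 38 gallons per acre.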

Turnip (TP) [5] = test: Pre-emergence herbicide test; assay type: in vivo, Brassica sp.; conditions: Brassica rapa, pre-emergence, 336 h, two weeks after treatment
Summary of the method: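 In this pre-emergence greenhouse test, turnip was seeded on the surface of potting soil in 3' plastic pots, lightly covered with screened soil, and watered from below. One day later the pots were sprayed in a belt-fed spray hood. Watering continued only by sub-irrigation, and percent control was visually scored two weeks after treatment.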

Cotton (CT) [6] = test: Pre-emergence herbicide test; assay type: in vivo, Gossypium hirsutum var. DPL smooth leaf; conditions: Gossypium hirsutum, 336 h, two weeks after treatment
Summary of the method: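 Visual injury/control ratings were taken at two weeks post-spray. Pots seeded a day earlier received compound pre-emergence at 8 lbs/acre, or 4 lbs/acre, in a 38 gallon/acre spray volume, and were then held in the greenhouse, watered only from below.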

Corn (CN) [7] = test: Pre-emergence herbicide test; assay type: in vivo; conditions: Zea mays, 336 h, two weeks after treatment
Summary of the method: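 Visual injury/control ratings were made 2 weeks post-spray on corn pots seeded (4 seeds, seed-diameter depth) the day before treatment. Application was a belt-hood spray of 38 gal/acre delivering 8 lbs active per acre, with a 4 lbs/acre rate also formulated. Watering was by sub-irrigation throughout.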

Bean (BN) [8] = test: Pre-emergence herbicide test; assay type: in vivo, Phaseolus vulgaris var. Black Valentine; conditions: Phaseolus vulgaris, 336 h, two weeks after treatment
Summary of the method: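 Visual injury/control ratings were taken two weeks post-spray on sub-irrigated Phaseolus vulgaris var. Black Valentine. Pots were sown a day before treatment. Pre-emergence spray delivered 8 lbs actual compound per acre (or 4 lbs/acre) at 38 gallons per acre.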

Crabgrass (CG) [9] = test: Post-emergence herbicide test; assay type: in vivo, Digitaria sanquinalis; conditions: Digitaria sanguinalis, post-emergence, 336 h, two weeks after treatment
Summary of the method: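 Crabgrass (Digitaria sanquinalis) was surface seeded individually in 3' plastic pots of potting soil, covered with screened soil, and watered by sub-irrigation in greenhouse trays. Planting was staggered so seedlings reached the target stage together. Post-emergence sprays were applied in a hood with a removable belt and fixed nozzle, and control was visually rated two weeks after treatment.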

Johnson grass (JG) [10] = test: Post-emergence herbicide test; assay type: in vivo, Sorgum helepense; conditions: Sorghum halepense, 336 h, two weeks after treatment
Summary of the method: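 Visual injury or control scores taken 2 weeks after a post-emergence spray of pot-grown plants. Application was 8 lbs/acre (or 4 lbs/acre) in 38 gal/acre. Plants were held in the greenhouse with sub-irrigation only.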

Barnyard grass (BG) [11] = test: Post-emergence herbicide test; assay type: in vivo; conditions: Echinochloa crus-galli, 336 h, two weeks after treatment
Summary of the method: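 Greenhouse pot-grown barnyard grass seedlings sprayed post-emergence at 8 lbs active compound per acre (some at 4 lbs/acre) in 38 gallons per acre, then sub-irrigated. Injury or control rated visually two weeks after treatment.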

Amaranth pigweed (PW) [12] = test: Post-emergence herbicide test; assay type: in vivo, Amaranthus retroflexus; conditions: 336 h, two weeks after treatment
Summary of the method: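 Visual injury or control ratings were made two weeks after spraying, with greenhouse watering by sub-irrigation only. Treatment was post-emergence, when pigweed seedlings had 1 or 2 true leaves, at 8 lbs active compound per acre (4 lbs/acre formulations also made) in a 38 gallons-per-acre spray volume.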

Turnip (TP) [13] = test: Post-emergence herbicide test; assay type: in vivo, Brassica sp.; conditions: Brassica rapa, post-emergence, 336 h, two weeks after treatment
Summary of the method: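 A greenhouse post-emergence herbicide test on turnip. Seeds were sown on the surface of potting soil in 3' plastic pots, lightly covered with screened soil and watered from below. Planting was timed so seedlings had 1 or 2 true leaves above the cotyledons at spraying, done in a hood with a fixed nozzle. Control or injury was scored by eye after two weeks.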

Cotton (CT) [14] = test: Post-emergence herbicide test; assay type: in vivo, Gossypium hirsutum var. DPL smooth leaf; conditions: Gossypium hirsutum, post-emergence, 336 h, two weeks after treatment
Summary of the method: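 This greenhouse post-emergence test measured how well spray treatments controlled cotton. Seedlings of Gossypium hirsutum var. DPL smooth leaf, with expanded cotyledons and a first true leaf 1' in length, were sprayed with 50 ml formulations in a belt-fed spray hood. They were then returned to the greenhouse and watered only by sub-irrigation. Injury was scored visually as % control after two weeks.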

Corn (CN) [15] = test: Post-emergence herbicide test; assay type: in vivo; conditions: Zea mays, 336 h, two weeks after treatment
Summary of the method: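 Greenhouse seedlings grown in potting soil and sprayed post-emergence at 8 lbs compound/acre (formulations also made for 4 lbs/acre) in 38 gallons/acre spray volume. Watering by sub-irrigation only. Injury or control rated visually two weeks after treatment.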

Bean (BN) [16] = test: Post-emergence herbicide test; assay type: in vivo, Phaseolus vulgaris var. Black Valentine; conditions: Phaseolus vulgaris, post-emergence, 336 h, two weeks after treatment
Summary of the method: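 Bean seedlings (Phaseolus vulgaris var. Black Valentine) were grown in potting soil in 3' pots until the primary leaves expanded. They were then sprayed under a hood with a removable belt and fixed nozzle, using 50 ml formulations. Afterward they were returned to the greenhouse and watered only by sub-irrigation. Percent control was judged visually two weeks after treatment.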

CCCSc1nnc(N(C)C(=O)N(C)C)s1 [Example 66]
pest or weed control (Crabgrass (CG) [1]; 2 lb/acre): 30% | pest or weed control at 4483.4 g/ha (Crabgrass (CG) [1]; 4 lb/acre): 100% | pest or weed control at 2241.7 g/ha (Johnson grass (JG) [2]; 2 lb/acre): 20% | pest or weed control at 4483.4 g/ha (Johnson grass (JG) [2]; 4 lb/acre): 100% | pest or weed control at 2241.7 g/ha (Barnyard grass (BG) [3]; 2 lb/acre): 30% | pest or weed control at 4483.4 g/ha (Barnyard grass (BG) [3]; 4 lb/acre): 100% | pest or weed control at 2241.7 g/ha (Amaranth pigweed (PW) [4]; 2 lb/acre): 100% | pest or weed control at 4483.4 g/ha (Amaranth pigweed (PW) [4]; 4 lb/acre): 100% | pest or weed control at 2241.7 g/ha (Turnip (TP) [5]; 2 lb/acre): 50% | pest or weed control at 4483.4 g/ha (Turnip (TP) [5]; 4 lb/acre): 100% | pest or weed control at 2241.7 g/ha (Cotton (CT) [6]; 2 lb/acre): 80% | pest or weed control at 4483.4 g/ha (Cotton (CT) [6]; 4 lb/acre): 100% | pest or weed control at 2241.7 g/ha (Corn (CN) [7]; 2 lb/acre): 0% | pest or weed control at 4483.4 g/ha (Corn (CN) [7]; 4 lb/acre): 50% | pest or weed control at 2241.7 g/ha (Bean (BN) [8]; 2 lb/acre): 100% | pest or weed control at 4483.4 g/ha (Bean (BN) [8]; 4 lb/acre): 100% | pest or weed control (Crabgrass (CG) [9]; 2 lb/acre): 50% | pest or weed control at 4483.4 g/ha (Crabgrass (CG) [9]; 4 lb/acre): 100% | pest or weed control (Johnson grass (JG) [10]; 2 lb/acre): 50% | pest or weed control at 4483.4 g/ha (Johnson grass (JG) [10]; 4 lb/acre): 60% | pest or weed control at 2241.7 g/ha (Barnyard grass (BG) [11]; 2 lb/acre): 60% | pest or weed control at 4483.4 g/ha (Barnyard grass (BG) [11]; 4 lb/acre): 70% | pest or weed control at 2241.7 g/ha (Amaranth pigweed (PW) [12]; 2 lb/acre): 100% | pest or weed control at 4483.4 g/ha (Amaranth pigweed (PW) [12]; 4 lb/acre): 100% | pest or weed control at 2241.7 g/ha (Turnip (TP) [13]; 2 lb/acre): 100% | pest or weed control at 4483.4 g/ha (Turnip (TP) [13]; 4 lb/acre): 100% | pest or weed control at 2241.7 g/ha (Cotton (CT) [14]; 2 lb/acre): 100% | pest or weed control at 4483.4 g/ha (Cotton (CT) [14]; 4 lb/acre): 100% | pest or weed control (Corn (CN) [15]; 2 lb/acre): 30% | pest or weed control at 4483.4 g/ha (Corn (CN) [15]; 4 lb/acre): 100% | pest or weed control at 2241.7 g/ha (Bean (BN) [16]; 2 lb/acre): 90% | pest or weed control at 4483.4 g/ha (Bean (BN) [16]; 4 lb/acre): 100%
